According to patent publication US20060148858A1, “1, 2-Azole derivatives with hypoglycemic and hypolipidemic activity” (priority 2002, published 2006):
Read-outs that look alike come from different tables or passages of the source.

What was measured:
KKAY mice = assay: Hypoglycemic and hypolipidemic actions in mice (Test Example 1); assay type: in vivo; conditions: Mus musculus, po, 96 h, 0.005% in powdery diet, four days, non-treated group taken as 100%
Experimental: Test compounds were mixed in a powdery diet (CE-2, Japan Clea) at the concentration of 0.005%, and freely given to KKAY mice (9 to 12 weeks old, 5 mice in a group), a model of obese and non-insulin dependent diabetes (type 2 diabetes), for four days. During this period, water was given freely. Blood was sampled from orbital venous plexus, and glucose and triglyceride levels in plasma separated from blood were determined enzymatically using L type Wako Glu2 (Wako Pure Chemical Industries, Ltd.) or L type Wako TG·H (Wako Pure Chemical Industries, Ltd.), respectively.
In the table, “hypoglycemic action (%)” means the rate of decrease (%) in the blood glucose level of the treated group when the blood glucose level of the non-treated group is taken as 100%. In addition, the “hypolipidemic action (%)” means the rate of decrease (%) in the blood triglyceride level of the treated group when the blood triglyceride level of the non-treated group is taken as 100%.

[1] = rate of decrease in blood glucose level, read-out: Hypoglycemic action (%)
[2] = rate of decrease in blood triglyceride level, read-out: Hypolipidemic action (%)

| melting point | SMILES | inhibition in vivo at 0.005 % in diet (KKAY mice; [1]) | inhibition in vivo at 0.005 % in diet (KKAY mice; [2]) |
| --- | --- | --- | --- |
| 132 to 133 °C | CC(C)c1nn(-c2ccc(C(F)(F)F)cn2)cc1CCCOc1ccccc1CC(=O)O [Example 179, [2-(3-{3-isopropyl-1-[5-(trifluoromethyl)-2-pyridyl]-1H-pyrazol-4-yl}propoxy)phenyl]acetic acid] | 34% | 37% |
| 140 to 141 °C | CC(C)c1nn(-c2ccc(C(F)(F)F)cn2)cc1CCCOc1c(F)cccc1CC(=O)O [Example 207, [3-fluoro-2-(3-{3-isopropyl-1-[5-(trifluoromethyl)-2-pyridyl]-1H-pyrazol-4-yl}propoxy)phenyl]acetic acid] | 49% | 72% |
| 147 to 148 °C | CCCC(C)c1nn(-c2ccc(C(F)(F)F)cn2)cc1CCCOc1c(C)cccc1CC(=O)O (centres unmarked) [Example 222, [3-methyl-2-(3-{3-(1-methylbutyl)-1-[5-(trifluoromethyl)-2-pyridyl]-1H-pyrazol-4-yl}propoxy)phenyl]acetic acid] | 36% | 54% |
| 94 to 95 °C | COc1cccc(CC(=O)O)c1OCCCc1cn(-c2ccc(C(F)(F)F)cn2)nc1C(C)(C)C [Example 345, [2-(3-{3-tert-butyl-1-[5-(trifluoromethyl)-2-pyridinyl]-1H-pyrazol-4-yl}propoxy)-3-methoxyphenyl]acetic acid] |  |  |
| 86 to 87 °C | Cc1cccc(CC(=O)O)c1OCCCc1cn(-c2ccc(C(F)(F)F)cn2)nc1C(C)(C)C [Example 346, [2-(3-{3-tert-butyl-1-[5-(trifluoromethyl)-2-pyridinyl]-1H-pyrazol-4-yl}propoxy)-3-methylphenyl]acetic acid] |  |  |
| 98 to 99 °C | CCc1cccc(CC(=O)O)c1OCCCc1cn(-c2ccc(C(F)(F)F)cn2)nc1C(C)(C)C [Example 347, [2-(3-{3-tert-butyl-1-[5-(trifluoromethyl)-2-pyridinyl]-1H-pyrazol-4-yl}propoxy)-3-ethylphenyl]acetic acid] |  |  |
| 108 to 109 °C | CC(C)c1cccc(CC(=O)O)c1OCCCc1cn(-c2ccc(C(F)(F)F)cn2)nc1C(C)C [Example 357, [3-isopropyl-2-(3-{3-isopropyl-1-[5-(trifluoromethyl)-2-pyridinyl]-1H-pyrazol-4-yl}propoxy)phenyl]acetic acid] |  |  |
| 127 to 128 °C | COc1cccc(CC(=O)O)c1OCCCc1cn(-c2cc(C(F)(F)F)ccn2)nc1C(C)C [Example 363, [2-(3-{3-isopropyl-1-[4-(trifluoromethyl)-2-pyridinyl]-1H-pyrazol-4-yl}propoxy)-3-methoxyphenyl]acetic acid] |  |  |
| 106 to 107 °C | COc1ccc(OC(C)(C)C(=O)O)cc1OCCCc1cn(-c2ccc(C(F)(F)F)cn2)nc1C(C)C [Example 376, 2-[3-(3-{3-isopropyl-1-[5-(trifluoromethyl)-2-pyridinyl]-1H-pyrazol-4-yl}propoxy)-4-methoxyphenoxy]-2-methylpropanoic acid] |  |  |
| 115 to 116 °C | CCc1ccc(OC(C)(C)C(=O)O)cc1OCCCc1cn(-c2ccc(C(F)(F)F)cn2)nc1C(C)C [Example 377, 2-[4-ethyl-3-(3-{3-isopropyl-1-[5-(trifluoromethyl)-2-pyridinyl]-1H-pyrazol-4-yl}propoxy)phenoxy]-2-methylpropanoic acid] |  |  |

Continued, molecule first:

| SMILES | melting point | inhibition in vivo at 0.005 % in diet (KKAY mice; [1]) | inhibition in vivo at 0.005 % in diet (KKAY mice; [2]) |
| --- | --- | --- | --- |
| COc1cccc(CC(=O)O)c1OCCCCc1cn(-c2ccc(C(F)(F)F)cn2)nc1C(C)C [Example 180, [2-(4-{3-isopropyl-1-[5-(trifluoromethyl)-2-pyridyl]-1H-pyrazol-4-yl}butoxy)-3-methoxyphenyl]acetic acid] | 144 to 145 °C | 32% | 36% |
| COc1cccc(CC(=O)O)c1OCCCc1cn(-c2ncc(C(F)(F)F)cc2Cl)nc1C(C)C [Example 217, [2-(3-{1-[3-chloro-5-(trifluoromethyl)-2-pyridyl]-3-isopropyl-1H-pyrazol-4-yl}propoxy)-3-methoxyphenyl]acetic acid] | 96 to 97 °C | 34% | 18% |
| CCc1cccc(CC(=O)O)c1OCCCc1cn(-c2ccc(C(F)(F)F)cn2)nc1C(CC)CC [Example 241, [3-ethyl-2-(3-{3-(1-ethylpropyl)-1-[5-(trifluoromethyl)-2-pyridinyl]-1H-pyrazol-4-yl}propoxy)phenyl]acetic acid] | 130 to 131 °C | 38% | 27% |
| CCc1cccc(CC(=O)O)c1OCCCc1cn(-c2ccc(Br)cn2)nc1C(C)C [Example 247, (2-{3-[1-(5-bromo-2-pyridinyl)-3-isopropyl-1H-pyrazol-4-yl]propoxy}-3-ethylphenyl)acetic acid] | 152 °C | 25% | 34% |
| CCc1cccc(CC(=O)O)c1OCCCc1cn(-c2ccc(C(F)(F)F)nn2)nc1C(CC)CC [Example 341, [3-ethyl-2-(3-{3-(1-ethylpropyl)-1-[6-(trifluoromethyl)pyridazin-3-yl]-1H-pyrazol-4-yl}propoxy)phenyl]acetic acid] | 93 to 94 °C |  |  |
| COc1cccc(CC(=O)O)c1OCCCc1cn(-c2nnc(C(F)(F)F)s2)nc1C(C)C [Example 344, [2-(3-{3-isopropyl-1-[5-(trifluoromethyl)-1,3,4-thiadiazol-2-yl]-1H-pyrazol-4-yl}propoxy)-3-methoxyphenyl]acetic acid] | 114 to 115 °C |  |  |
| CCC(CC)c1nn(-c2ccc(C(F)(F)F)cn2)cc1CCCOc1c(CC(=O)O)ccnc1C [Example 348, [3-(3-{3-(1-ethylpropyl)-1-[5-(trifluoromethyl)-2-pyridinyl]-1H-pyrazol-4-yl}propoxy)-2-methyl-4-pyridinyl]acetic acid] | 78 to 79 °C |  |  |
| CCC(CC)c1nn(-c2ccc(Br)cn2)cc1CCCOc1c(C)cccc1CC(=O)O [Example 353, (2-{3-[1-(5-bromo-2-pyridinyl)-3-(1-ethylpropyl)-1H-pyrazol-4-yl]propoxy}-3-methylphenyl) acetic acid] | 120 to 121 °C |  |  |
| CCc1cccc(CC(=O)O)c1OCCCc1cn(-c2ccc(Br)cn2)nc1C(CC)CC [Example 355, (2-{3-[1-(5-bromo-2-pyridinyl)-3-(1-ethylpropyl)-1H-pyrazol-4-yl]propoxy}-3-ethylphenyl)acetic acid] | 123 °C |  |  |
| CCCc1nn(-c2ccc(C(F)(F)F)cn2)cc1CCCOc1c(CC(=O)O)cccc1C(C)C [Example 359, [3-isopropyl-2-(3-{3-propyl-1-[5-(trifluoromethyl)-2-pyridinyl]-1H-pyrazol-4-yl}propoxy)phenyl]acetic acid] | 102 to 103 °C |  |  |
| COc1cccc(CC(=O)O)c1OCCCc1cn(-c2cccc(C(F)(F)F)n2)nc1C(C)C [Example 365, [2-(3-{3-isopropyl-1-[6-(trifluoromethyl)-2-pyridinyl]-1H-pyrazol-4-yl}propoxy)-3-methoxyphenyl]acetic acid] | 95 to 97 °C |  |  |
| COc1cccc(CC(=O)O)c1OCCCc1cn(-c2ccc(C(F)(F)F)nn2)nc1C(C)(C)C [Example 366, [2-(3-{3-tert-butyl-1-[6-(trifluoromethyl)pyridazin-3-yl]-1H-pyrazol-4-yl}propoxy)-3-methoxyphenyl]acetic acid] | 131 to 132 °C |  |  |
| Cc1cccc(CC(=O)O)c1OCCCc1cn(-c2ccc(Cl)cn2)nc1C(C)(C)C [Example 371, (2-{3-[3-tert-butyl-1-(5-chloropyridin-2-yl)-1H-pyrazol-4-yl]propoxy}-3-methylphenyl)acetic acid] | 112 to 113 °C |  |  |
| Cc1nn(-c2ccccn2)cc1COc1ccc(CCC(=O)O)cc1 [Example 372, 3-{4-[3-methyl-1-(2-pyridinyl)-1H-pyrazol-4-ylmethoxy]phenyl}propionic acid] | 129 to 130 °C |  |  |
